Laboratory results from US6426087B1, “Orally administrable immediate-release and prolonged-release galenic form comprising an absorption-promoting agent and use of this absorption-promoting agent” (Merck Patent Gesellschaft mit, priority 1998, dated 2002).
Blank lines part the entries; values can stand above or below the compound they belong to.

Assays:
Caco-2 line = assay: Permeability of carbon 14-labelled acamprosate with promoting agents in the Caco-2 cellular model (diffusion chamber); type: in vitro ADME, human; conditions: Papp of acamprosate
Text: (§1) Actions of various promoting agents or mixtures of promoting agents on the permeability of calcium acetylhomotaurinate, in the Caco-2 cellular model.
(§2) A solution of carbon 14-labelled acamprosate, of known concentration, is placed in the apical compartment of a Grass Sweetana-type diffusion chamber which comprises a second so-called basolateral compartment separated from the first by an insert supporting a monocellular confluent culture of human colon adenocarcinoma […] epithelial cells, Caco-2 line.
(§3) Samples are collected at regular intervals from the second basolateral compartment. The acamprosate concentration is determined by […]. A simple calculation makes it possible to obtain the apparent permeability coefficient (Papp). The acamprosate solution is supplemented with various promoting agents or mixtures of promoting agents, under varying conditions. The influence of these agents on the apparent permeability coefficient (Papp) was measured. The experimental results are grouped together in the following table where the apparent permeability coefficient values (Papp) are expressed in cm/s.

[1] = as above; type: in vitro ADME, human; conditions: human, Caco-2; acamprosate solution, promoting agent: None; apical to basolateral; read-out: Papp, Mean (n = 6)
Text: as §1, §2, §3

SMILES: CCCCCCCCCC(=O)O [Capric]
Papp, Mean (n = 6) (Caco-2 line; promoting agent Conc. 0.25 % m/v): 63.6 10^−7 cm/s

SMILES: CC(=O)NCCCS(=O)(=O)O [acamprosate, calcium 3-acetylamino-1-propanesulphonate, reference compound]
Papp A→B [1]: 2.4 ×10⁻⁶ cm/s

Papp, Mean (n = 6) (Caco-2 line; promoting agent Conc. 0.2 % m/v): 114 10^−7 cm/s
SMILES: C[C@H](CCC(=O)NCC(=O)[O-])[C@H]1CC[C@H]2[C@@H]3[C@H](O)C[C@@H]4C[C@H](O)CC[C@]4(C)[C@H]3C[C@H](O)[C@]12C.[Na+] [Na glycocholate, sodium glycocholate]
